Measured values taken from ChEMBL document CHEMBL4699558, “Lead optimization of 8-(methylamino)-2-oxo-1,2-dihydroquinolines as bacterial type II topoisomerase inhibitors” (Bioorg Med Chem, 2020).
pIC50: −log10 of the molar value. Values after ≈ are worked out from the molar mass of the structure shown.

Columns and labels:
Staphylococcus aureus [1] = assay: Antibacterial activity against hospital-acquired Methicillin -resistant Staphylococcus aureus ATCC BAA-811 by CLSI method; format: functional
Staphylococcus aureus [2] = assay: Antibacterial activity against community-acquired Methicillin -resistant Staphylococcus aureus ATCC BAA-1556 by CLSI method; format: functional
DNA gyrase = DNA gyrase (Escherichia coli, UniProt P0AES4+P0AES6); assay: Inhibition of Escherichia coli DNA gyrase by measuring supercoiling activity incubated for 60 mins by fluorescence based assay; format: protein-complex assay
[3] = Inhibition of Escherichia coli topoisomerase IV by measuring relaxation activity incubated for 30 mins by fluorescence based assay
Escherichia coli [4] = assay: Antibacterial activity against Escherichia coli ATCC 25922 by CLSI method; format: functional
Escherichia coli [5] = assay: Antibacterial activity against Escherichia coli ATCC 25922 in presence of PAbetaN by CLSI method; format: functional
Staphylococcus aureus [6] = assay: Antibacterial activity against Staphylococcus aureus ATCC 29213 by CLSI method; format: functional
Enterococcus faecium [7] = assay: Antibacterial activity against Enterococcus faecium ATCC 35667 by CLSI method; format: functional
Enterococcus faecium [8] = assay: Antibacterial activity against vancomycin-resistant Enterococcus faecium ATCC 51559 by CLSI method; format: functional
Enterococcus faecalis [9] = assay: Antibacterial activity against Enterococcus faecalis ATCC 29212 by CLSI method; format: functional
Enterococcus faecalis [10] = assay: Antibacterial activity against vancomycin-resistant Enterococcus faecalis ATCC 51575 by CLSI method; format: functional
Streptococcus pneumoniae [11] = assay: Antibacterial activity against Streptococcus pneumoniae ATCC 49619 by CLSI method; format: functional
Streptococcus anginosus = assay: Antibacterial activity against Streptococcus anginosus ATCC 33397 by CLSI method; format: functional
Haemophilus influenzae = assay: Antibacterial activity against Haemophilus influenzae ATCC 43095 by CLSI method; format: functional
[12] = molecular target: DNA gyrase (Escherichia coli) (UniProt P0AES6+P0AES4); assay: Potency index, ratio of IC50 of 4-(8-(methylamino)-2-oxo-1,2-dihydroquinoline-3-carboxamido)benzoic acid to IC50 of compound for inhibition of Escherichia coli DNA gyrase incubated for 60 mins by fluorescence based assay; format: protein-complex assay
Escherichia coli [13] = assay: Potency index, ratio of MIC of 4-(8-(methylamino)-2-oxo-1,2-dihydroquinoline-3-carboxamido)benzoic acid to MIC of compound for antibacterial activity against Escherichia coli ATCC 25922; format: functional
[14] = molecular target: T1, Cytoplasmic tyrosine-protein kinase BMX (Homo sapiens) (UniProt P51813); assay: Inhibition of recombinant BMX (unknown origin) at 10 uM using fluorescence-labeled peptide as substrate incubated for 15 mins followed by substrate addition and measured after 90 mins by electrophoretic mobility assay relative to control; settings: time 105.0 min
T1 sequence (whole entry): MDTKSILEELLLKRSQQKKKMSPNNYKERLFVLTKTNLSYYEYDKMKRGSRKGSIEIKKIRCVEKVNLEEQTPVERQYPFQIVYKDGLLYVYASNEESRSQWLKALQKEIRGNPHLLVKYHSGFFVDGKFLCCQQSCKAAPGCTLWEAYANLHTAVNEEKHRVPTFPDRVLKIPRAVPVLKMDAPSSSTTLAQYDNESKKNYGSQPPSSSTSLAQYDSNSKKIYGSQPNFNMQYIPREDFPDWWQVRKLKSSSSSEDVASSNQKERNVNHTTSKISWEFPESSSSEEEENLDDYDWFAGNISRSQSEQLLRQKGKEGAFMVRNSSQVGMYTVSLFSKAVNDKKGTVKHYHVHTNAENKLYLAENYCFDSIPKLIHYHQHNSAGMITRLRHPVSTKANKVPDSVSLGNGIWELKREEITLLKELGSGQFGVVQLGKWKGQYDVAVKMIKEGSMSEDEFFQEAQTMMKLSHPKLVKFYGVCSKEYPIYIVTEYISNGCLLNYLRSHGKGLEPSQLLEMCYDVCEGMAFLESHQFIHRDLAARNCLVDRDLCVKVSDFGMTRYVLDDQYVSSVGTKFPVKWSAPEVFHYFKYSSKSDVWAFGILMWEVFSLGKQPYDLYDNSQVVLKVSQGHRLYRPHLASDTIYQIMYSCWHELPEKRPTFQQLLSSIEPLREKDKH

Staphylococcus aureus [15] = assay: Antibacterial activity against Methicillin-resistant Staphylococcus aureus by CLSI method; format: functional
[16] = molecular target: DNA topoisomerase 2-alpha (Homo sapiens, UniProt P11388); assay: Inhibition of human topoisomerase 2alpha; format: ADME
[17] = molecular target: Voltage-gated inwardly rectifying potassium channel KCNH2 (Homo sapiens, UniProt Q12809); assay: Inhibition of human ERG expressed in CHO cells by Q-patch clamp assay
[18] = Cytotoxicity against human HepG2 cells assessed as reduction in cell viability at 10 uM incubated for 48 hrs by CCK-8 assay; settings: HepG2 cells
[19] = Cytotoxicity against human HepG2 cells assessed as reduction in cell viability at 50 uM incubated for 48 hrs by CCK-8 assay; settings: HepG2 cells
Clostridioides difficile = assay: Antibacterial activity against Clostridioides difficile ATCC 700057 by CLSI method; format: functional
[20] = system: Peptostreptococcus anaerobius; assay: Antibacterial activity against Peptostreptococcus anaerobius ATCC 27337 by CLSI method; format: functional
Bacteroides fragilis = assay: Antibacterial activity against Bacteroides fragilis ATCC 25285 by CLSI method; format: functional
[21] = system: Prevotella melaninogenica; assay: Antibacterial activity against Prevotella melaninogenica JCM6325 by CLSI method; format: functional
Porphyromonas gingivalis = assay: Antibacterial activity against Porphyromonas gingivalis JCM8525 by CLSI method; format: functional
Fusobacterium nucleatum = assay: Antibacterial activity against Fusobacterium nucleatum JCM8532 by CLSI method; format: functional
Enterococcus = assay: Antibacterial activity against Vancomycin-resistant Enterococcus by CLSI method; format: functional
Streptococcus pneumoniae [22] = assay: Antibacterial activity against genotype penicillin-resistant Streptococcus pneumoniae by CLSI method; format: functional
[23] = Cmax in ICR mouse at 100 mg/kg, sc measured upto 24 hrs by LC-MS analysis; format: ADME, organism-based; design: route subcutaneous, dose 100 mg/kg, time 24 hrs; settings: in vivo
[24] = Tmax in ICR mouse at 100 mg/kg, sc measured upto 24 hrs by LC-MS analysis; format: ADME, organism-based; settings: in vivo
[25] = Half life in ICR mouse at 100 mg/kg, sc measured upto 24 hrs by LC-MS analysis; format: ADME, organism-based; settings: in vivo
[26] = AUC (0 to 24 hrs) in ICR mouse at 100 mg/kg, sc measured upto 24 hrs by LC-MS analysis; format: ADME, organism-based; design: route subcutaneous, dose 100 mg/kg, time 24 hrs; settings: in vivo

Voltage-gated inwardly rectifying potassium channel KCNH2, sequence (Q12809 whole entry): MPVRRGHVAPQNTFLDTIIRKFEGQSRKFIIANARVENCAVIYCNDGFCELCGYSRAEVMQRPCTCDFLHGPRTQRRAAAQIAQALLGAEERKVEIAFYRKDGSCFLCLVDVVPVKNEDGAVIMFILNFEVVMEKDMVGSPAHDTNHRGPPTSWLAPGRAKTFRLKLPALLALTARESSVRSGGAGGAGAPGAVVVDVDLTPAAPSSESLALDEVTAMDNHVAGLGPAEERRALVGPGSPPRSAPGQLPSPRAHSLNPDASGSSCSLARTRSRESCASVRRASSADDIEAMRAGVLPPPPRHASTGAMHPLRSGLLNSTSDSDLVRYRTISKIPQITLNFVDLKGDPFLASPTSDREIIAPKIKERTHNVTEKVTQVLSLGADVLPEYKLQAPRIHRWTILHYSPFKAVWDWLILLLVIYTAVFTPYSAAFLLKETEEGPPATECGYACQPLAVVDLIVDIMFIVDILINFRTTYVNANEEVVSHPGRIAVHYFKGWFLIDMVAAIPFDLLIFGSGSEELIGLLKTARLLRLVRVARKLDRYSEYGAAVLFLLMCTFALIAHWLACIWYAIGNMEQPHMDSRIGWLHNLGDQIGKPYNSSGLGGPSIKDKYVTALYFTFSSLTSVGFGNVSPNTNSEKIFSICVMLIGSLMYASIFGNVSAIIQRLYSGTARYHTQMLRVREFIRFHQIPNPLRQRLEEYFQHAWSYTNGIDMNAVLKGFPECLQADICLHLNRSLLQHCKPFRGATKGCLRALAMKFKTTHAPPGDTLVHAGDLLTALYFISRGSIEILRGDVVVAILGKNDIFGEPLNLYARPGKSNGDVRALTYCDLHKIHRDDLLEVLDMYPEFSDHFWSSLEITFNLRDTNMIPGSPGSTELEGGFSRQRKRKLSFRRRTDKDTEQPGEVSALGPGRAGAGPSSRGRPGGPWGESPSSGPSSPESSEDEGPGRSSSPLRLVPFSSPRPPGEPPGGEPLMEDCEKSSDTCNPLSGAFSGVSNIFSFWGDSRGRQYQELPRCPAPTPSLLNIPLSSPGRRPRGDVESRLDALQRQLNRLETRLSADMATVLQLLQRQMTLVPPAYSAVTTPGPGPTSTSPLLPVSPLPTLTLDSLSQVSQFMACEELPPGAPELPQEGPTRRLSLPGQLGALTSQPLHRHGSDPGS
DNA topoisomerase 2-alpha, sequence (P11388 whole entry): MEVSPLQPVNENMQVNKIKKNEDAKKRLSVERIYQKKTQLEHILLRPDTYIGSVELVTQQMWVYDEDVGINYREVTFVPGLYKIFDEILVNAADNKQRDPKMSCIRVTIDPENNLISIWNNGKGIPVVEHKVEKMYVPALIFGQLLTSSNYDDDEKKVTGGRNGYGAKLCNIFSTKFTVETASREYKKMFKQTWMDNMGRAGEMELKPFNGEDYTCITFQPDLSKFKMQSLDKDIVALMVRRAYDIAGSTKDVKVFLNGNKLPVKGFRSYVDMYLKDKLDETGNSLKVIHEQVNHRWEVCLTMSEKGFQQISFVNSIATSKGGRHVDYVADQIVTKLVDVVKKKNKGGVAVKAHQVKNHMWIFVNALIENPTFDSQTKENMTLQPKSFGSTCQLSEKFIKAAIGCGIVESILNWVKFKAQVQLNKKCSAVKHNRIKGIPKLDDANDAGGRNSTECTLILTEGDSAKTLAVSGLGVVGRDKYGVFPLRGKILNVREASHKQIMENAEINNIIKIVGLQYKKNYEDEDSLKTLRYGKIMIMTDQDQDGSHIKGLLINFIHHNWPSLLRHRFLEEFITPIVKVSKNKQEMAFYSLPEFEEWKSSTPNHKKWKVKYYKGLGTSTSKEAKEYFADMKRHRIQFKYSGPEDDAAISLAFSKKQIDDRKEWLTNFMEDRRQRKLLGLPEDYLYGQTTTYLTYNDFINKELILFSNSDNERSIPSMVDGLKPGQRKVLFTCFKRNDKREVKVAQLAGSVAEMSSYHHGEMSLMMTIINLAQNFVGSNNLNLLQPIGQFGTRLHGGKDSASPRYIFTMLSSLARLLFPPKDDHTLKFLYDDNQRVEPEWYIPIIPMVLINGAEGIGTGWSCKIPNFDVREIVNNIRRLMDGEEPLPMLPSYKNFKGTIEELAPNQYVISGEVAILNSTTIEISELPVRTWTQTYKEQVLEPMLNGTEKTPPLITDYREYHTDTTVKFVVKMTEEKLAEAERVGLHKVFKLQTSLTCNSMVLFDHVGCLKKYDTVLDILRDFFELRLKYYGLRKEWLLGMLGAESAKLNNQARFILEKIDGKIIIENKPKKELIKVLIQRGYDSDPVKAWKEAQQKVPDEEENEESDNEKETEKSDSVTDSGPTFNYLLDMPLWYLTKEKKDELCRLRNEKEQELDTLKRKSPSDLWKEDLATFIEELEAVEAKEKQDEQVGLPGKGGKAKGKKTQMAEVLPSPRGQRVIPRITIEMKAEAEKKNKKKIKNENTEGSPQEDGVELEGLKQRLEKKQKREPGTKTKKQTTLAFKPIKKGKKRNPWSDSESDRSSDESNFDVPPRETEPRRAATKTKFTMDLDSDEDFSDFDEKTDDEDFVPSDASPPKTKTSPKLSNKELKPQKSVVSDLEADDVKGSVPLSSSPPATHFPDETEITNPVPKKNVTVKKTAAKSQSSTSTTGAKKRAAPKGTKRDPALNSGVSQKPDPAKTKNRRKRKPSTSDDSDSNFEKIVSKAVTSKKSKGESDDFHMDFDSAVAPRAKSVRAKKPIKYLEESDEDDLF

CNc1cc(F)cc2cc(C(=O)Nc3ccc(C(=O)O)cc3)c(=O)[nH]c12
MIC (Staphylococcus aureus [1]): 8 µg/mL (≈ 22.5 µM) | MIC (Staphylococcus aureus [2]): 8 µg/mL (≈ 22.5 µM) | pIC50 (DNA gyrase): 9.44 | pIC50 [3]: 6.66 | MIC (Escherichia coli [4]): 16 µg/mL (≈ 45 µM) | MIC (Escherichia coli [5]): 0.015 µg/mL | MIC (Staphylococcus aureus [6]): 4 µg/mL (≈ 11.3 µM) | MIC (Enterococcus faecium [7]): 0.03 µg/mL (≈ 0.0844 µM) | MIC (Enterococcus faecium [8]): 0.015 µg/mL (≈ 0.0422 µM) | MIC (Enterococcus faecalis [9]): 0.015 µg/mL (≈ 0.0422 µM) | MIC (Enterococcus faecalis [10]): 0.015 µg/mL (≈ 0.0422 µM) | MIC (Streptococcus pneumoniae [11]): 0.03 µg/mL (≈ 0.0844 µM) | MIC (Streptococcus anginosus): 0.06 µg/mL (≈ 0.169 µM) | MIC (Haemophilus influenzae): 0.03 µg/mL (≈ 0.0844 µM) | Ratio IC50 [12]: 5 | Ratio (Escherichia coli [13]): 4

CNc1cc(F)cc2c(O)c(C(=O)Nc3ccc(C(=O)O)cc3)c(=O)[nH]c12
inhibition [14]: 29% | MIC50 (Staphylococcus aureus [15]): 0.25 µg/mL (≈ 0.673 µM) | MIC90 (Staphylococcus aureus [15]): 0.25 µg/mL (≈ 0.673 µM) | MIC (Staphylococcus aureus [1]): 0.5 µg/mL (≈ 1.35 µM) | MIC (Staphylococcus aureus [2]): 0.25 µg/mL (≈ 0.673 µM) | pIC50 (DNA gyrase): 8.96 | pIC50 [3]: 7.20 | MIC (Escherichia coli [4]): 1 µg/mL (≈ 2.69 µM) | MIC (Staphylococcus aureus [6]): 0.25 µg/mL (≈ 0.673 µM) | MIC (Enterococcus faecium [7]): 0.008 µg/mL (≈ 0.0215 µM) | MIC (Enterococcus faecium [8]): 0.015 µg/mL (≈ 0.0404 µM) | MIC (Enterococcus faecalis [9]): 0.002 µg/mL (≈ 0.00539 µM) | MIC (Enterococcus faecalis [10]): 0.002 µg/mL (≈ 0.00539 µM) | MIC (Streptococcus pneumoniae [11]): 0.015 µg/mL (≈ 0.0404 µM) | MIC (Streptococcus anginosus): 0.03 µg/mL (≈ 0.0808 µM) | MIC (Haemophilus influenzae): ≤ 0.015 µg/mL | pIC50 [16]: < 4.00 | pIC50 [17]: < 4.52 | cytotoxicity at 48 h, 10 µM [18]: 7.93% | cytotoxicity at 48 h, 50 µM [19]: 25.2% | MIC (Clostridioides difficile): 0.25 µg/mL (≈ 0.673 µM) | MIC [20]: 0.06 µg/mL (≈ 0.162 µM) | MIC (Bacteroides fragilis): 8 µg/mL (≈ 21.5 µM) | MIC [21]: > 32 µg/mL | MIC (Porphyromonas gingivalis): 0.25 µg/mL (≈ 0.673 µM) | MIC (Fusobacterium nucleatum): 0.12 µg/mL (≈ 0.323 µM) | MIC50 (Enterococcus): 0.008 µg/mL (≈ 0.0215 µM) | MIC90 (Enterococcus): 0.015 µg/mL (≈ 0.0404 µM) | MIC50 (Streptococcus pneumoniae [22]): 0.03 µg/mL (≈ 0.0808 µM) | MIC90 (Streptococcus pneumoniae [22]): 0.06 µg/mL (≈ 0.162 µM) | Cmax [23]: 12400 ng/mL | Tmax [24]: 0.25 h | half-life [25]: 6.79 h | AUC(0-t) at 24 h [26]: 16000 ng·h/mL
